{
  "source": "patent US20160168118A1",
  "about": "“N-(5-QUINOLIN-6-YL)PYRIDIN-3-YL) BENZSULFAMIDE DERIVATIVES, PREPARATION METHOD AND THERAPEUTIC USE THEREOF” (SECOND MILITARY MEDICAL UNIVERSITY, PLA, priority 2012, published 2016)",
  "key": {"[1]": {"tested_on": "human lung carcinoma A549 xenografts", "experiment": "In vivo efficacy on human lung carcinoma A549 xenografts in nude mice", "design": "species or system BALB/C nude mice", "conditions": "ig, GSK2126458 3 mg/kg, compound 9 10 mg/kg", "excerpt": "Strain: BALB/C nude mice (SPF grade), Source: Shanghai Slac laboratory animal limited liability company, the production license number: SCXK (Shanghai) 2007-0005, the using license number: SYXK (Shanghai) 2009-0068, gender: male, weight: 18-20 g, the number of animals per group: 6.\nA549 solid tumors which were well-grown were taken, cut to uniform bits of about 3 mm size under aseptic condition, every bit was inoculated to each mouse subcutaneously in the right armpit with trocar, and randomly divided into three groups, each treatment was:\n1) Control (saline), gavage, the dose 25 ml/kg, 14 days;\n3) Compound 9, gavage, the dose 10 mg/kg, 14 days;\nRegrouped according to tumor size on the 13th day after inoculation, the animals of which tumor size is too large and too small were eliminated, the average tumor volume of each group are basically the same. Administration was carried out according to the above regimen; the dosing volume was 0.5 ml/20 g body weight. The axis (a), shorter diameter (b) of tumor was measured 2 times a week with an electronic digital caliper, calculate formula of tumor volume (tumor volume, TV) is as follows: TV=1/2×a×b2, calculate formula of relative tumor volume (relative tumor volume, RTV), is as follows: RTV=Vt/Vo, wherein Vo is the tumor volume measured at the time when dividing cages (i.e. dl), Vt is the tumor volume measured each time. […] T test was conducted. Animals were sacrificed 30 days after inoculation, dissected and the tumor mass were taken, tumor weight was measured."}, "PI3Kγ": {"molecular_target": "PI3Kγ (Homo sapiens, UniProt P48736)", "sequence (P48736 whole entry, species assumed)": "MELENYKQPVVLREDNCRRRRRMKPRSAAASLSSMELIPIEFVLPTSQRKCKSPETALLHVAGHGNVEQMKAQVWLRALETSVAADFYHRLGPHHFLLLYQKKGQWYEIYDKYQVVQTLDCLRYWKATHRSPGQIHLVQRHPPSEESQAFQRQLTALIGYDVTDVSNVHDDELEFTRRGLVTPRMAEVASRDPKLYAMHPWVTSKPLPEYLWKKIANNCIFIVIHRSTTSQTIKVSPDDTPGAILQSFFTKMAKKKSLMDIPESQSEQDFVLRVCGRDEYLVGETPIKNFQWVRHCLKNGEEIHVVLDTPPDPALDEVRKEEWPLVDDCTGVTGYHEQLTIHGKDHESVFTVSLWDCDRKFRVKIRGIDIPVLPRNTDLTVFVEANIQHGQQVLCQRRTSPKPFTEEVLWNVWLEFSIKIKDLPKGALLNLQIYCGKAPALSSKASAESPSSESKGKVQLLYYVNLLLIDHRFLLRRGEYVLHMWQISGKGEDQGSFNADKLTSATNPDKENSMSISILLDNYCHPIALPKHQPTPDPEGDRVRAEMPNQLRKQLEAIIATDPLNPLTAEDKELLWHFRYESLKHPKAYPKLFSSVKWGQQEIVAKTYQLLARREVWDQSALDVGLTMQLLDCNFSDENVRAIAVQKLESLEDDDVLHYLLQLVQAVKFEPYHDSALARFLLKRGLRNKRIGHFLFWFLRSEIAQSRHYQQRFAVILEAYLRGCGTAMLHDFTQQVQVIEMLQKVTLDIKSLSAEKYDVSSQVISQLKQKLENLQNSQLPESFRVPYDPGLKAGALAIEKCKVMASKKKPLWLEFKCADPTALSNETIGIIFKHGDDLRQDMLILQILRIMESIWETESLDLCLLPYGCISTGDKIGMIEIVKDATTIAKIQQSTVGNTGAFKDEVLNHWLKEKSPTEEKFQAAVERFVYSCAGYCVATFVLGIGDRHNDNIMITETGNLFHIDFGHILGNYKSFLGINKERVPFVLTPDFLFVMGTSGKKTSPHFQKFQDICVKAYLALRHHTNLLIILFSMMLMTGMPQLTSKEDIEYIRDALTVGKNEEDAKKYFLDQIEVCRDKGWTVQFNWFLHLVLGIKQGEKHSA", "experiment": "ADP-Glo Luminescent Kinase Assay, PI3Kγ", "type": "biochemical", "conditions": "read-out: IC50 on PI3K gamma"}, "A549": {"tested_on": "A549", "experiment": "NCI cytotoxicity test, A549", "type": "cell-based", "conditions": "Homo sapiens", "excerpt": "(§1) Cytotoxicity Test of Compound 9, 10 and 17 on 60 Kinds of Human Cancer Cell Lines from the US National Cancer Institute"}, "PI3Kα": {"molecular_target": "PI3Kα (Homo sapiens, UniProt P42336)", "sequence (P42336 whole entry, species assumed)": "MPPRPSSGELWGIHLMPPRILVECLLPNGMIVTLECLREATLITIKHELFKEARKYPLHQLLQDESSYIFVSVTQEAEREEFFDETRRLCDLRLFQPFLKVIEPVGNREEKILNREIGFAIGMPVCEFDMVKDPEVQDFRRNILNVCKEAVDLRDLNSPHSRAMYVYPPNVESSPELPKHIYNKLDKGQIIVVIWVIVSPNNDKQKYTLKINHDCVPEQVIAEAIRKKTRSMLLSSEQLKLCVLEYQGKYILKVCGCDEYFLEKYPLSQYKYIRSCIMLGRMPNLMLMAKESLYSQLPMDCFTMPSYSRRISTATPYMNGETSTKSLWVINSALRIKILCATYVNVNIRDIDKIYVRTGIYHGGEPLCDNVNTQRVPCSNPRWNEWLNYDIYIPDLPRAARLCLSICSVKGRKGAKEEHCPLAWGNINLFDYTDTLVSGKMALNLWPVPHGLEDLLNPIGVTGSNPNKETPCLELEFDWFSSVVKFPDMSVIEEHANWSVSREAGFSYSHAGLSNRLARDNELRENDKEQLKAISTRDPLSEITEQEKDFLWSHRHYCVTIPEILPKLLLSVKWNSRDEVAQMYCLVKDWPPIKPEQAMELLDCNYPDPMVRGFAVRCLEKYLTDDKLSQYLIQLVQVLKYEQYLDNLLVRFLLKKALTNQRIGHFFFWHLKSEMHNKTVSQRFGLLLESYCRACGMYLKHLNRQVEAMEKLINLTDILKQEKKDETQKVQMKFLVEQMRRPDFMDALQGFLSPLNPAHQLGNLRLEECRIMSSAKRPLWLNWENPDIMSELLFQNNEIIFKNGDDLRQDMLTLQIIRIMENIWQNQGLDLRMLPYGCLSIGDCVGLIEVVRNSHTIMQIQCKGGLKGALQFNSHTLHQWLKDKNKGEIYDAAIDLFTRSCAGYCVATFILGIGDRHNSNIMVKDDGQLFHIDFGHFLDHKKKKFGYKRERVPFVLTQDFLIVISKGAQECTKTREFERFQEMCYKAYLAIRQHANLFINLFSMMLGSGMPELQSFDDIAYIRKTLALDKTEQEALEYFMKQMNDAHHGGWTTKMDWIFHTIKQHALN", "sequence (P27986 whole entry partner, species assumed)": "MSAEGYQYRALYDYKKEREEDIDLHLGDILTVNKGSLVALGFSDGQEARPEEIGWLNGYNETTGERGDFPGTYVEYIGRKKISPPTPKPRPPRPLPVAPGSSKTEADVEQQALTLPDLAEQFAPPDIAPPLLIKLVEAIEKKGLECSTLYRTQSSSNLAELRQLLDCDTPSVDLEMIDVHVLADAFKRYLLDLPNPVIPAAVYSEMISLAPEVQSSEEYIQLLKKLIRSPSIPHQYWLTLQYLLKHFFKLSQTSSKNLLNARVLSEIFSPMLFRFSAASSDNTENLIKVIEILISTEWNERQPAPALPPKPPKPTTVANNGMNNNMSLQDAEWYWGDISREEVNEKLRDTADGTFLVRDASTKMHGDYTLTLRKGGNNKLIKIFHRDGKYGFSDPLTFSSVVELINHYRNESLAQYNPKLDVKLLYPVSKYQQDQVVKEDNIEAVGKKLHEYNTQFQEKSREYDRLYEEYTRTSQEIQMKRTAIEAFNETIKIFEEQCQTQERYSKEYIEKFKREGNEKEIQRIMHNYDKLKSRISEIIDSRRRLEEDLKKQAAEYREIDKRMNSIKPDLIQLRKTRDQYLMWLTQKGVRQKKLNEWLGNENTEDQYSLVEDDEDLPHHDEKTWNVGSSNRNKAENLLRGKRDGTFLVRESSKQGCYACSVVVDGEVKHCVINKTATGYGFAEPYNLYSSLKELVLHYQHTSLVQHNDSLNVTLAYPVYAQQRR", "experiment": "Kinase-Glo Luminescent Kinase Assay, PI3Kα", "type": "biochemical"}, "MCF7": {"tested_on": "MCF7", "experiment": "NCI cytotoxicity test, MCF7", "type": "cell-based", "conditions": "Homo sapiens", "excerpt": "as §1"}, "[2]": {"experiment": "Solubility test in buffer solution at pH=1", "type": "physicochemical", "conditions": "pH=1 buffer solution, simulated gastric fluid, thermodynamic from solid; buffer solution pH=1", "experimental": "Compound 9 1.02 mg was precisely weighed and placed in 1.5 mL of EP tube, and 10 uL pH=1 buffer solution was added, vortexed for 30S and ultrasonic for 20 min. There was a lot of visible turbidity after that.\n20 uL buffer was added and ultrasounded and the solution was found still turbid. Turbidity reduced after the solution was diluted to 1 mL and vortexed, while there still exist residual after diluted to 2 mL."}, "[3]": {"tested_on": "HCT116 (human colon cancer cells)", "experiment": "MTT assay, HCT116", "type": "cell-based", "conditions": "HCT-116, 72 h"}, "PC3": {"tested_on": "PC3", "experiment": "NCI cytotoxicity test, PC3", "type": "cell-based", "conditions": "Homo sapiens, PC-3", "excerpt": "as §1"}, "COLO205": {"tested_on": "COLO205", "experiment": "NCI cytotoxicity test, COLO205", "type": "cell-based", "conditions": "Homo sapiens, COLO 205", "excerpt": "as §1"}, "[4]": {"tested_on": "U87MG (human brain star glioblastoma)", "experiment": "MTT assay, U87MG", "type": "cell-based", "conditions": "U-87 MG, 72 h", "how_it_was_run": "(§2)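 Cells seeded at 4~5×10^4 cells/ml in DMEM with 5-10% FBS, treated after 24 h for 72 h at 37° C, 5% CO2, in duplicate wells. MTT (5 mg/ml) added for 4 h, formazan dissolved and OD read at 570 nm.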"}, "SF539": {"tested_on": "SF539", "experiment": "NCI cytotoxicity test, SF539", "type": "cell-based", "conditions": "Homo sapiens, SF-539", "excerpt": "as §1"}, "[5]": {"tested_on": "A549 (human lung cancer cells)", "experiment": "MTT assay, A549", "type": "cell-based", "conditions": "72 h", "how_it_was_run": "as §2"}, "PI3K delta": {"molecular_target": "PI3K delta (Homo sapiens, UniProt O00329)", "sequence (O00329 whole entry)": "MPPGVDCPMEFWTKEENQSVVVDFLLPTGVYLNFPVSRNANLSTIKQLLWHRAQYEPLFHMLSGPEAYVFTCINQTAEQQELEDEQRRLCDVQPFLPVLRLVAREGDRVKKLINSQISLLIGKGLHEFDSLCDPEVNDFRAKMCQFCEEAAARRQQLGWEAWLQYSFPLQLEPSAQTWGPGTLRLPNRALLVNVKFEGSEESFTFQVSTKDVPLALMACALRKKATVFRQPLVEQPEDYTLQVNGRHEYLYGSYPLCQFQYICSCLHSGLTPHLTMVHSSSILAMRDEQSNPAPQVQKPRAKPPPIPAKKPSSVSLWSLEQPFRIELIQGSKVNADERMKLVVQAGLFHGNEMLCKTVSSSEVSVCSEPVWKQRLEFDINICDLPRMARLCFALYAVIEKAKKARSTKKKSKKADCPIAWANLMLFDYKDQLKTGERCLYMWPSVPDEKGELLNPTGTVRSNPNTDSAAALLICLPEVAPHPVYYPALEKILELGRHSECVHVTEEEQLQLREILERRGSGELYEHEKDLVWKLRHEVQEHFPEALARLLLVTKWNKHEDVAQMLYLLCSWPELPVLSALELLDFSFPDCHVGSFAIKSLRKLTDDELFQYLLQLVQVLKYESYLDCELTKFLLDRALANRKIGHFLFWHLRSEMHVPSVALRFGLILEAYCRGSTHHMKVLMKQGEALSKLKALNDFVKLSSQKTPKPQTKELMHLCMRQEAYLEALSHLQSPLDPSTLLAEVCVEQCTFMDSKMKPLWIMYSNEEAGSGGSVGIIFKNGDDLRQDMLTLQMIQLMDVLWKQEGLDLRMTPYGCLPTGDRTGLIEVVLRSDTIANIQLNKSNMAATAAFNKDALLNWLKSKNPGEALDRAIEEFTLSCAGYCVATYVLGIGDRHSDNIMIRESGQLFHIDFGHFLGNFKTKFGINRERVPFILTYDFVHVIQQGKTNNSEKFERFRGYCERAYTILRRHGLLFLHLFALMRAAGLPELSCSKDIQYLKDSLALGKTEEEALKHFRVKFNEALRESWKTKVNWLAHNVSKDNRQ", "sequence (P27986 whole entry partner)": "as the sequence (P27986 whole entry partner, species assumed) above", "experiment": "Kinase-Glo Luminescent Kinase Assay, PI3K delta", "type": "biochemical"}, "five human tumor cells": {"tested_on": "five human tumor cells", "experiment": "MTT assay, five human tumor cells (summary in words)", "type": "cell-based", "conditions": "A549, HCT116, HepG2, ZR-75-30, U87MG", "experimental": "1. Sample preparation: After dissolved with DMSO (Merck), PBS (−) was added to make 1000 μg/ml solution or a uniform suspension, and then diluted with PBS (−) containing the DMSO. Doxorubicin (DOX) was used as the positive control drug.\n2. Cell Line • 1) A549 (human lung cancer cells); 2) HCT116 (human colon cancer cells); 3) HepG2 (human hepatoma cells); 4) ZR-75-30 (human breast cancer cells); 5) U87MG (human brain star glioblastoma)\nDMEM+5-10% FBS+double resistant\nMTT assay. 100 μl cell suspension was added at a concentration of 4˜5×10^4 cells/ml to each well of a 96-well plate, and was set at 37° C., 5% CO2 in the incubator. After 24 h, the sample solution was added, 10 μl/hole, double wells were set, 37° C., acting for 72 h at 5% CO2. […] of 5 mg/ml was added to each well, the dissolving liquid was added after acted for 4 h, 100 μl/hole, kept in the incubator, and read 570 nm OD with MK-2 automatic microplate reader after dissolution."}, "PI3Kβ": {"molecular_target": "PI3Kβ (Homo sapiens, UniProt P42338)", "sequence (P42338 whole entry, species assumed)": "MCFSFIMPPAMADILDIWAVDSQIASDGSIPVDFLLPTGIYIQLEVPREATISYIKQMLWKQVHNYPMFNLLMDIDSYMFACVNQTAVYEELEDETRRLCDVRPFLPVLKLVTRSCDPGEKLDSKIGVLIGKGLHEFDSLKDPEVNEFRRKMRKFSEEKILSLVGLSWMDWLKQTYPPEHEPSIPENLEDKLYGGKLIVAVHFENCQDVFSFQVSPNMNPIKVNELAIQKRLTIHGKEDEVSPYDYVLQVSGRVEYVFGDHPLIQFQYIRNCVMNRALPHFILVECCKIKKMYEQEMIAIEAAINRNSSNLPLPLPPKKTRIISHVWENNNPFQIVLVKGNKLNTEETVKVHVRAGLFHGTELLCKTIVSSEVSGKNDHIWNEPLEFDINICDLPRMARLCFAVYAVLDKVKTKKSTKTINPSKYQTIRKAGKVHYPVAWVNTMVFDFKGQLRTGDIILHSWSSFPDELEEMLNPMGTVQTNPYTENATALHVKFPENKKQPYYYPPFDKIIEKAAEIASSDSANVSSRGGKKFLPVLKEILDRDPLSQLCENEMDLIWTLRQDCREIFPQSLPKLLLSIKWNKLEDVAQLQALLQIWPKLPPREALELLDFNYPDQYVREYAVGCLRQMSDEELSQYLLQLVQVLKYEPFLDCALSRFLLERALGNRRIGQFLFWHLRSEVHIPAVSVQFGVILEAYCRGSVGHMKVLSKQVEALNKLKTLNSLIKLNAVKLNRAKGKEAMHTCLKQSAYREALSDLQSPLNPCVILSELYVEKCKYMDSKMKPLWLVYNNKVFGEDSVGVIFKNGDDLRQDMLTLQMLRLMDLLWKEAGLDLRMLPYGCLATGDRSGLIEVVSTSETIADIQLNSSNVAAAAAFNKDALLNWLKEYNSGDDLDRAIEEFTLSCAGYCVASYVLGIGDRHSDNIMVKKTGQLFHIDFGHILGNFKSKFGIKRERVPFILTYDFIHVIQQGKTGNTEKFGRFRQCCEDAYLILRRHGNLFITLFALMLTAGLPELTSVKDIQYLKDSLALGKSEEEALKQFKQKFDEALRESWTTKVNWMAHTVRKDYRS", "sequence (P27986 whole entry partner, species assumed)": "as the sequence (P27986 whole entry partner, species assumed) above", "experiment": "ADP-Glo Luminescent Kinase Assay, PI3Kβ", "type": "biochemical", "conditions": "read-out: IC50 on PI3K beta"}, "SN12C": {"tested_on": "SN12C", "experiment": "NCI cytotoxicity test, SN12C", "type": "cell-based", "conditions": "Homo sapiens", "excerpt": "as §1"}, "mTOR": {"molecular_target": "mTOR (Homo sapiens, UniProt P42345)", "experiment": "Lance Ultra Assay, mTOR", "type": "biochemical"}, "[6]": {"tested_on": "60 kinds of human cancer cell lines", "experiment": "Cytotoxicity test on 60 kinds of human cancer cell lines from the US National Cancer Institute", "type": "cell-based", "excerpt": "as §1"}, "OVCAR3": {"tested_on": "OVCAR3", "experiment": "NCI cytotoxicity test, OVCAR3", "type": "cell-based", "conditions": "Homo sapiens, OVCAR-3", "excerpt": "as §1"}},
  "note": "Read-outs that look alike come from different tables or passages of the source.",
  "data": [
    {"smiles": "COc1ncc(-c2ccc3nccc(-c4ccc(CN(C)C)cc4)c3c2)cc1NS(=O)(=O)c1ccc(F)cc1F", "note": "[Compound 9, N-(5-(4-(4-((dimethylamine)methyl)phenyl)quinolin-6-yl)-2-methoxypyridine-3-yl)-2,4-difluorobenzenesulfonamide]", "values": [
      {"measurement": "Animal wight (g) (tumor removed)", "setting": "[1]; at end", "value": "23.28 ± 1.34", "unit": "g"},
      {"measurement": "RTV (d18) x ± SD", "setting": "[1]; d18", "value": "5.37 ± 1.86"},
      {"measurement": "IC50", "setting": "PI3Kγ", "value": 1.5, "unit": "nM"},
      {"measurement": "GI50", "setting": "A549", "value": "< 10", "unit": "nM"},
      {"measurement": "IC50", "setting": "PI3Kα", "value": 1.3, "unit": "nM"},
      {"measurement": "GI50", "setting": "MCF7", "value": "< 10", "unit": "nM"},
      {"measurement": "solubility at 20 min", "setting": "[2]", "value": 33.3, "unit": "mg/mL"},
      {"measurement": "IC50", "setting": "[3]", "value": 1.69, "unit": "ng/mL"},
      {"measurement": "GI50", "setting": "PC3", "value": "< 10", "unit": "nM"},
      {"measurement": "GI50", "setting": "COLO205", "value": 13.5, "unit": "nM"},
      {"measurement": "IC50", "setting": "[4]", "value": 51, "unit": "ng/mL"},
      {"measurement": "GI50", "setting": "SF539", "value": 17, "unit": "nM"},
      {"measurement": "IC50", "setting": "[5]", "value": 2.47, "unit": "ng/mL"},
      {"measurement": "IC50", "setting": "PI3K delta", "value": 3.8, "unit": "nM"},
      {"measurement": "in vitro proliferation inhibition (in words)", "setting": "five human tumor cells", "value": "high in vitro proliferation inhibition"},
      {"measurement": "IC50", "setting": "PI3Kβ", "value": 1.8, "unit": "nM"},
      {"measurement": "GI50", "setting": "SN12C", "value": "< 10", "unit": "nM"},
      {"measurement": "IC50", "setting": "mTOR", "value": 3.8, "unit": "nM"},
      {"measurement": "GI50", "setting": "[6]; on the 35 tumor cell lines, read-out: average half growth inhibitory concentration (GI50)", "value": "< 10", "unit": "nM"},
      {"measurement": "GI50", "setting": "[6]; on the 60 kinds of tumor cells, read-out: Average GI50", "value": 18.6, "unit": "nM"},
      {"measurement": "GI50", "setting": "OVCAR3", "value": "< 10", "unit": "nM"}
    ]}
  ]
}
